The values below come from US11414398B2, “Selective organic cation transporters inhibitors for the treatment of depressive disorders” (priority 2017, dated 2022).

Data set [1] has as its system α2-adrenoreceptors. The note with it: cited from earlier work.
The target of data set [2] is T1, OCT3 (Homo sapiens, UniProt O75751).
T1 sequence (O75751 1-556): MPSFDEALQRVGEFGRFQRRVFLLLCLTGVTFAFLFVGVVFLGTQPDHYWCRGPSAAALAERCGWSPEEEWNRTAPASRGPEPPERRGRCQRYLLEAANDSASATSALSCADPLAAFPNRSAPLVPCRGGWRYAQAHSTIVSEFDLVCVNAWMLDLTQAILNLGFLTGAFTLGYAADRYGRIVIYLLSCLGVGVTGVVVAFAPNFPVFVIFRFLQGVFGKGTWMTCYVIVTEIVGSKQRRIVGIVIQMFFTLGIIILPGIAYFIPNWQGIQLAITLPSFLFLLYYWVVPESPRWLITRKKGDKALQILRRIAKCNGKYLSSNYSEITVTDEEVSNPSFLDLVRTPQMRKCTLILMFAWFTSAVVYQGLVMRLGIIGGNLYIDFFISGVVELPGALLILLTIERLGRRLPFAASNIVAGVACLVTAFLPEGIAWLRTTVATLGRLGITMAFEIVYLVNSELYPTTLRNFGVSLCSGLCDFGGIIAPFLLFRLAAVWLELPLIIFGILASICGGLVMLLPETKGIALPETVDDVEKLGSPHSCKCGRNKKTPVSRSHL
The note with it: for OCT3; cited from earlier work.

For data set [3] the following is noted: after injection in rabbits; cited from earlier work.
In data set [4] the test system is α1-adrenoreceptors. Particulars: cited from earlier work.
The subject of data set [5] is social defeat model. Kind of data set: Social defeat model, social interaction test. It counts as in vivo, mice. Particulars: after 3 weeks of treatment; fluoxetine 17 mg/kg, compound (I-1) 0.1 mg/kg as printed. On the procedure: (§1) Social defeat model. For social defeat, 8-week-old C57Bl/6J mice were submitted to social defeat stress for 10 consecutive days as described (Berton et al., Science, 2006, 311(5762), 864-8). […] The experimental scheme is represented on FIG. 1H. Social interaction test. The social interaction test was performed in a white open-field (42×42 cm) containing an empty wire mesh cage (10×6.5 cm) located at an extremity of the field in a low luminosity environment (25 lux). Each test mouse was allowed to explore the openfield for two consecutive sessions of 2.5 min. During the second session, an unfamiliar mouse was introduced into the cage. Between the two sessions, the test mouse was placed back into its home cage for approximately one minute. The time spent by the test mouse in the interaction zone, defined as an 8-cm-wide region surrounding the mesh cage, was measured in both sessions by video tracking (Viewpoint, Lyon, France) (FIGS. 1G and 1I).

Data set [6] has as its system corticosterone-induced depression model. The data set is described as follows: Sucrose preference test, corticosterone-induced depression. Type of data set: in vivo, mice. Particulars: i.p. daily: I-1 0.1 mg/kg/day, fluoxetine 15 mg/kg/day or both. On the procedure:
Corticosterone-induced depression. […] The experimental scheme is represented on FIG. 1A. Sucrose preference test. Singled-house mice were first habituated for 48 h to drink water from two bottles.

The subject of data set [7] is autophagy and proteasome pathways in the brain. The data set is described as follows: Toxicity: cell death pathways in the brain, Western blots. Particulars: quantitative Western blot, prefrontal cortex and hippocampus, corticosterone model. On the procedure: (§2) Corticosterone-induced depression. To induce a chronic depression-like state, individually housed mice were administered corticosterone ([…]; Sigma-Aldrich) dissolved in 0.45% (wt/vol) hydroxypropyl-b-cyclodextrin (Sigma-Aldrich) as in (Bacq et al., Mol. Psychiatry, 2012, 17, 926-939). […] The mice were tested successively for coat sate, sucrose consumption, elevated O-maze, object location test and social interaction, before antidepressant treatment, and after 10 days and 3 weeks of treatment. The experimental scheme is represented on FIG. 1A.
Cell death pathways in the brain—Western blots. […] Samples were homogenized by sonication in 2 vol of ice-cold phosphate-buffered saline containing 1% Triton X-100, protease inhibitors (Complete Protease Inhibitor Cocktail, Roche Diagnostics, Basel, Switzerland) and phosphatase inhibitors (Phosphatase Inhibitor Cocktail 3; Sigma-Aldrich). Protein concentrations were determined by Bradford's method. Proteins samples (15 μg) suspended in NuPage LDS sample buffer (Invitrogen, Carlsbad, Calif., USA) were separated by Bis-Tris sodium dodecyl sulfate polyacrylamide gel electrophoresis (10% gels) and transferred onto nitrocellulose membranes (Invitrogen). Transfer efficacy was controlled by Ponceau S staining. Unspecific binding sites were blocked in Tris-buffered saline containing 0.1% Tween-20 and 5% nonfat milk and membranes were immunoprobed with antibodies against β-actin ( 1/2500) and β-catenin ( 1/300) from Sigma-Aldrich or LC3B ( 1/5000) from Abcam. Membranes were incubated with infrared-labeled secondary antibodies (IRDye 700DX and IRDye 800CW; 1/5000; Rockland, Gilbertsvillle, Pa., USA). Immunoblotting was quantified with the Odyssey Infrared Imaging System and Application Software version 3.0 (LI-COR Biosciences, Lincoln, Nebr., USA).

For data set [8] the following is noted: blood after 3 weeks of treatment, corticosterone model; means ± SEM (n = 6). How it is done:
as §2
Blood parameter evaluation. Blood was collected in lithium heparin after the 3 weeks of treatment. Hemograms were performed with a Siemens ADVIAZ 120 apparatus. For biochemistry, blood was centrifuged at 2000 g for 10 min at +4° C. and supernatant was analyzed with a COBAS 6000 (Roche) apparatus.

The test system of data set [9] is corticosterone-induced depression model. The data set is described as follows: Elevated O-maze test, corticosterone-induced depression. The note with it: after 21 days; i.p. daily: I-1 0.1 mg/kg/day, fluoxetine 15 mg/kg/day or both. Type of data set: in vivo, mice. How it is done:
Corticosterone-induced depression. […] The experimental scheme is represented on FIG. 1A. Elevated O-maze test. The elevated O-maze consisted of an annular runway positioned 40 cm above the floor and divided into two opposing 90° closed sectors and two 90° open sectors. The mice were individually placed in the closed sector and their behavior recorded over a 5-min period. The time spent in each sector and the number of sector entries (a sector entry was defined as all four of the paws being placed in a sector) were determined by video tracking (Viewpoint, Lyon, France) (FIGS. 1D and 1E).

The test system is the same in data set [10]. The data set is described as follows: Social interaction test, corticosterone-induced depression. It counts as in vivo, mice. Particulars: compared to corticosterone. On the procedure:
as §1, with “Corticosterone-induced depression.” for “Social defeat model. For social defeat, 8-week-old C57Bl/6J mice were submitted to social defeat stress for 10 consecutive days as described (Berton et al., Science, 2006, 311(5762), 864-8).”, “1A.” for “1H.”

For data set [11] the test system is unchanged. The data set is described as follows: Open-field test, corticosterone-induced depression. Particulars: compared to corticosterone; I-1 0.1 mg/kg/day, fluoxetine 15 mg/kg/day or both, i.p. It counts as in vivo, mice. On the procedure:
as §2
Open-field test. The open field consisted of a white Plexiglas field (100×100×30 cm) with the center brightly illuminated (500 lux). General locomotor activity in the center and periphery of the open field were scored for 9 min. The time and number of entries in the center zone (60×60 cm) were evaluated as an index of anxiety-related response (FIG. 2B).

Data set [12] can be described thus: Effect on weight, corticosterone-induced depression. It counts as in vivo, mice. The note with it: weight measured daily; I-1 0.1 mg/kg/day, fluoxetine 15 mg/kg/day or both, i.p. How it is done:
Corticosterone-induced depression. […] The experimental scheme is represented on FIG. 1A. Effect on weight. The weight of tested mice was measured daily in the morning (FIG. 2D).

Data set [13] deals with corticosterone-induced depression model. Kind of data set: Coat state, corticosterone-induced depression. Type of data set: in vivo, mice. Particulars: both time points; i.p. daily: I-1 0.1 mg/kg/day, fluoxetine 15 mg/kg/day or both. How it is done:
Corticosterone-induced depression. […] The experimental scheme is represented on FIG. 1A. Coat state. The coat state of each animal was assessed weekly as a measure of motivation toward self-care. It was evaluated as the sum of the score of different parts of the body, ranging between 0 for a well-groomed coat and 1 for an unkempt coat for head, neck, dorsal/ventral coat, tail and forepaws/hindpaws (FIG. 1B).

Take `CC(C)N1/C(=C\c2cc[n+](C(C)C)c3ccccc23)C=Cc2ccccc21` [Compound D24, disprocynium 24]: the “inhibition of α2-adrenoreceptors” value in data set [1] is on record as “inhibits”. For the same compound, in data set [2], the Ki is 14 nM. Further, the “hypotensive effects (blood pressure)” value in [3] is listed as “decreasing blood pressure markedly”. For the same compound, the “inhibition of α1-adrenoreceptors” value in data set [4] was “inhibits”.

With `CNCCC(Oc1ccc(C(F)(F)F)cc1)c1ccccc1` (stereo not shown) [fluoxetine, reference compound], the “reversal of social aversion (time in interaction zone with target)” value in data set [5] was “reversed only by fluoxetine”. Besides, in data set [6] (11 days of treatment), the sucrose preference entry is given as “but not fluoxetine alone, significantly increased sucrose preference at 11 days”. Further, in [6] (21 days of treatment), the sucrose preference entry is “significantly increased sucrose preference at 21 days”. Further, in data set [7], the LC3II/LC3I ratios entry was “comparable LC3II/LC3I ratios” and the β-catenin levels result is “comparable”. Moreover, in data set [8], the ALP worked out at 47.4 ± 6.2 U/L, the ALT is 75.1 ± 12.4 U/L, the AST was found to be 584.2 ± 87.6 U/L and the Creatinine worked out at 0.5 ± 0.04 mg/dL. In [8], this compound registered a Hematies of 8.5 ± 0.3 T/L, a Leucocytes of 2.99 ± 0.08 g/L, a Platelets of 357 ± 57.2 and a Total bilirubin of 0.12 ± 0.01 mg/dL. Also, the Urea in data set [8] is 64.2 ± 4.1 mg/dL. In [9], the “latency to enter the open zone of the elevated O-maze” value was “decreased the latency to enter this zone” and the “time in the open zone of the elevated O-maze” value is “increased the time in the open zone”. In [10] (11 days of treatment), the “interaction time in social interaction test” value is given as “significant effects on interaction time”. In addition, the “interaction time in social interaction test” value in data set [10] (21 days of treatment) is given as “significant effects on interaction time”. The “locomotor activity at the periphery of the open field” value in [11] was “significant effect”. Further, the effect on weight result in data set [12] was “no significant effect”. Further, the coat state entry in [13] is “improved coat state at both time points”.
